Measurements reported in EP4755393A1, “USE OF PROTON PUMP REGULATOR IN PREPARATION OF DRUG” (Shanghai Quietd Biotechnology Co., Ltd., priority 2023, dated 2025).
“Also recorded” adds a separate entry of the source. Ends that are not written are not given here.

Experiments:
[1] = test system: homozygous DIR-Ki mice; test: Novel object recognition test in DIR-Ki mice; type: in vivo; details: intravenous, 7 consecutive days, FIG. 15
Procedure: Thirty homozygous DIR-Ki mice were divided into three groups: the control group (HO+PBS), the QD202 1 mg/kg group (HO+QD202 1 mpk), and the QD202 5 mg/kg group (HO+QD202 5 mpk). After 7 consecutive days of intravenous administration in the QD202-treated groups, the novel object recognition test was initiated.
Square PVC plastic box (dimensions: 25 cm × 25 cm × 30 cm), two identical size 1 batteries, one plastic toy of the same height as the batteries, experimental observation box, camera, and video recording software
On the day of the experiment, the mice were allowed to acclimatize to the experimental room for 30 min in advance. The test was divided into an acclimation period and a testing period.
Familiarization phase: Two identical batteries were placed 5 cm away from a box wall, with a 5 cm gap between the two batteries. The mice were placed in the center of the area and allowed to explore freely for 10 min. […]
Testing period: A toy with size and height similar to those of the battery was randomly used to replace one battery and placed in the same position as the original battery. […] The entire process was recorded using a camera. […] After the experiment, the time taken for the mice to explore novel and familiar objects in the video was counted manually, and the time recognition index of the novel objects was calculated. […]

[2] = biological target: hATP6V1B2 (Homo sapiens, UniProt P21281); test: Co-immunoprecipitation of Myc-tagged hATP6V1B2 with GFP-tagged QD202 and site mutants (HEK 293 lysates, western blot); type: binding; details: expressed from pEGFP-N3 plasmids in HEK 293, anti-GFP IP, FIG. 7A, 7B
Sequence of hATP6V1B2 (P21281 whole entry): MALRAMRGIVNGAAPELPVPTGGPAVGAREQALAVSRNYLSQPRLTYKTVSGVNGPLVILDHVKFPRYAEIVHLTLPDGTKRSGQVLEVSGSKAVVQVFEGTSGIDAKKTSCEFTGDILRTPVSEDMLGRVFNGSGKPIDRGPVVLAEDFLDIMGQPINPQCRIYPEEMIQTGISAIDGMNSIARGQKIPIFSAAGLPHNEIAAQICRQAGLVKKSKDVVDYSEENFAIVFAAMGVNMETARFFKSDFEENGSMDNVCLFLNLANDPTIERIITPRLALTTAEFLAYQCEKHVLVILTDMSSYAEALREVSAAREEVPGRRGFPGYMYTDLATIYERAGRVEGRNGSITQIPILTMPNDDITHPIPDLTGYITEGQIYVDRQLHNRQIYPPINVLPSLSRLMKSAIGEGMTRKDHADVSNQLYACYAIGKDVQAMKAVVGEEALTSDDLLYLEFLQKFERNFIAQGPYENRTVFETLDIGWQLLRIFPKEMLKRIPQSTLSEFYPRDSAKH
Procedure: Expression plasmids of hATP6V1B2, QD202, site-mutated QD202(D15A), site-mutated QD202(V16A), site-mutated QD202(P13A), and site-mutated QD202(V14A) were constructed respectively. The hATP6V1B2 was co-transfected into HEK 293 cells with the expression plasmids of QD202, site-mutated QD202(D15A), site-mutated QD202(V16A), site-mutated QD202(P13A) and site-mutated QD202(V14A), respectively, and cellular proteins were extracted 48 h after transfection. Table 1: Plasmid sequences
Protein extraction was performed using Pierce RIPA lysis buffer. Taking cells in a 60 mm culture dish as an example, 500 µL of Pierce RIPA lysis buffer containing protease inhibitors was added. Cells were collected and transferred to a clean 1.5 mL EP tube using a cell scraper. After mixing for 1 h on a rotary mixer at 4°C, the cells were centrifuged at 13,000 rpm at 4°C for 10 min to remove cell debris. The hATP6V1B2 was equally divided into […], which were then mixed separately with the cell lysates transfected with QD202, site-mutated QD202(P13A), site-mutated QD202(V14A), site-mutated QD202(D15A), and site-mutated QD202(V16A), 30 µL of the supernatant was taken and mixed with 10 µL of 4× loading buffer, followed by boiling at 100°C for 5 min and storage at -20°C; 2 µL of the antibody (Anti-GFP, Roche, 11814460001) was added to the remaining 470 µL of the protein lysate, and the mixture was incubated overnight (about 16-18 h) on a rotary shaker at 4°C. 30 µL of Protein G Sepharose beads (Roche, 11243233001) were placed in an EP tube and washed three times with Pierce RIPA lysis buffer to eliminate interference from the original stock solution. The protein that had been incubated with the antibody overnight was added to the Sepharose beads, followed by mixing and incubation at 4°C for 2 h to ensure sufficient binding between the antibody and the protein. The mixture was centrifuged at 4000 rpm for 1 min. The supernatant was aspirated off, followed by the addition of 600 µL of Pierce RIPA lysis buffer. The tube was gently inverted, followed by centrifugation to collect the supernatant. The above steps were repeated three times to wash away non-specifically bound proteins. Finally, 30 µL of 1×loading buffer was added, the mixture was mixed well, heated at 60°C for 20 min to denature the protein, and then stored at -20°C. The protein was examined by western blot (Myc-Tag (9B11) Mouse mAb, CST, 2276S; Anti-GFP, Roche, 11814460001).
The hATP6V1B2 was co-transfected into the host cell line HEK 293 with the expression plasmids of QD202, site-mutated QD202(P13A), site-mutated QD202(V14A), site-mutated QD202(D15A) and site-mutated QD202(V16A), respectively. […] It is therefore hypothesized that valine at position 16 of QD202 is one of the key amino acids for the binding between hATP6V1B2 and QD202, whereas proline at position 13, valine at position 14 and aspartic acid at position 15 can be replaced with alanine, as illustrated in FIG. 7A and FIG. 7B.

[3] = test system: APP/PS1 transgenic mice; test: Morris water maze test in AD mice; type: in vivo; details: continuously for 1 week
[4] = test system: Male SD rats; details: rat, in vivo

QD202: Polypeptide synthesized according to the amino acid sequence set forth in SEQ ID NO: 1; ATP6V1B2 regulator / DIR regulator (YGRKKRRQRRRSPVDVVCS; not fully specified)
novel object recognition index ([1]; 1.0 mg/kg): significantly improved | novel object recognition index ([1]; 5.0 mg/kg): significantly improved | binding to Myc-tagged hATP6V1B2 (co-immunoprecipitation) [2]: bind to | learning and cognitive functions in the water maze behavior ([3]; intragastric, 6.25 mg/kg, ten-month-old APP/PS1 mice, FIG. 10): obvious improvement of learning and cognitive functions | learning and cognitive functions in water maze behavior ([3]; intravenous injection, 1.25 mg/kg, APP/PS1 mice of 10 months old, FIG. 12): obvious improvement on learning and cognitive functions | neurobehavioral score [4]: lower than that of the Model + QD202 placebo group with a statistical difference (p<0.05); also recorded: lower than that of the Model + QD202 placebo group with extremely significant statistical differences (p<0.001)
